Values quoted from earlier work, collected in patent US9622976B2, “Pharmaceutical composition” (LEK PHARMACEUTICALS D.D., priority 2006, dated 2017).

Settings: pH 6.8 phosphate buffer

solubility: ≤ 2 μg per ml
Structure (SMILES): CCCc1nc2c(C)cc(-c3nc4ccccc4n3C)cc2n1Cc1ccc(-c2ccccc2C(=O)O)cc1 [Telmisartan, 2-[4-[[4-methyl-6-(1-methylbenzoimidazol-2-yl)-2-propyl-benzoimidazol-1-yl]methyl]phenyl]benzoic acid]
